ChEMBL document CHEMBL1201862, “PubChem BioAssay data set” (2004)
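Tested at 5 concentrations; 48 h exposure; 96-well plates; endpoints linearly interpolated, else capped at highest concentration. GI50: concentration for 50% inhibition of growth.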 Calls of active or inactive are those of the source. Rule as the data show it: active = GI50 up to about 1.1 µM and inactive = higher.

Key:
Assay in all cases: NCI tumour cell line growth inhibition, 48 h
[1] = test system: HT-29
[2] = test system: EKVX
[3] = test system: TK-10
[4] = test system: NCI-H460
[5] = test system: HOP-62
[6] = test system: 786-0
[7] = test system: COLO 205
[8] = test system: A549
[9] = test system: KM12
[10] = test system: HOP-92
[11] = test system: OVCAR-5
[12] = test system: MDA-MB-435
[13] = test system: LOX IMVI
[14] = test system: A498
[15] = test system: MCF7
[16] = test system: RPMI-8226
[17] = test system: SNB-19
[18] = test system: UACC-62
[19] = test system: SK-MEL-28
[20] = test system: SK-MEL-2
[21] = test system: SF-539
[22] = test system: CAKI-1
[23] = test system: DU-145
[24] = test system: PC-3
[25] = test system: CCRF-CEM
[26] = test system: T47D
[27] = test system: UO-31
[28] = test system: U-251
[29] = test system: MOLT-4
[30] = test system: SK-MEL-5
[31] = test system: MDA-N
[32] = test system: RXF 393
[33] = test system: SW-620
[34] = test system: M14
[35] = test system: K562
[36] = test system: NCI/ADR-RES
[37] = test system: MDA-MB-231
[38] = test system: BT-549
[39] = test system: SR
[40] = test system: ACHN
[41] = test system: NCI-H522
[42] = test system: SK-OV-3
[43] = test system: HCT-15
[44] = test system: HCC 2998
[45] = test system: OVCAR-8
[46] = test system: NCI-H23
[47] = test system: SN12C
[48] = test system: SF-295
[49] = test system: SF-268
[50] = test system: OVCAR-3
[51] = test system: OVCAR-4
[52] = test system: HCT-116
[53] = test system: UACC-257
[54] = test system: Hs-578T
[55] = test system: NCI-H226
[56] = test system: IGROV-1
[57] = test system: SNB-75
[58] = test system: HL-60
[59] = test system: Malme-3M

`O=C1CC(c2cccc(Cl)c2)Nc2ccc(N3CCCC3)cc21` (centres undefined) was tested, and the GI50 [1] was 79.1 nM (active), the GI50 [2] was 65.8 nM (active) and the GI50 [3] was 942 nM (active). The GI50 [4] was 50.6 nM (active), the GI50 [5] was 419 nM (active) and the GI50 [6] was 57.7 nM (active). For the same compound, the GI50 [7] was 194 nM (active), the GI50 [8] was 49.4 nM (active) and the GI50 [9] was 361 nM (active). The GI50 [10] was 373 nM (active), the GI50 [11] was 526 nM (active) and the GI50 [12] was 4.84 nM (active). The GI50 [13] was 51.8 nM (active), the GI50 [14] was 10 nM (active) and the GI50 [15] was 555 nM (active). The GI50 [16] was 80.2 nM (active), the GI50 [17] was 33.2 nM (active) and the GI50 [18] was 53.7 nM (active). For the same compound, the GI50 [19] was 189 nM (active), the GI50 [20] was 54.6 nM (active) and the GI50 [21] was 26.3 nM (active). The GI50 [22] was 60.8 nM (active), the GI50 [23] was 39.1 nM (active) and the GI50 [24] was 34.3 nM (active). For the same compound, the GI50 [25] was 30.2 nM (active), the GI50 [26] was > 100000 nM (inactive) and the GI50 [27] was 60.3 nM (active). The GI50 [28] was 31.4 nM (active), the GI50 [29] was 80.2 nM (active) and the GI50 [30] was 30.5 nM (active). The GI50 [31] was 3.59 nM (active), the GI50 [32] was 22.4 nM (active) and the GI50 [33] was 26.6 nM (active). For the same compound, the GI50 [34] was 28 nM (active), the GI50 [35] was 86.3 nM (active) and the GI50 [36] was 27.4 nM (active). For the same compound, the GI50 [37] was 366 nM (active), the GI50 [38] was 1290 nM (inactive) and the GI50 [39] was 30.4 nM (active). For the same compound, the GI50 [40] was 52.4 nM (active), the GI50 [41] was 19.1 nM (active) and the GI50 [42] was 193 nM (active). The GI50 [43] was 203 nM, the GI50 [44] was 335 nM (active) and the GI50 [45] was 52.2 nM (active). For the same compound, the GI50 [46] was 278 nM (active), the GI50 [47] was 55.2 nM (active) and the GI50 [48] was 43.9 nM (active). For the same compound, the GI50 [49] was 115 nM (active), the GI50 [50] was 158 nM (active) and the GI50 [51] was 6890 nM (inactive). The GI50 [52] was 38.5 nM (active), the GI50 [53] was 68.7 nM (active) and the GI50 [54] was 10 nM (active). For the same compound, the GI50 [55] was 72.1 nM (active) and the GI50 [56] was 130 nM (active).
`CCN(CCCl)c1cc(CN(C)C)cc(NC(=O)c2ccc(C(=O)Nc3cc(CN(C)C)cc(N(CC)CCCl)c3)cc2)c1` was tested, and the GI50 [1] was 95.1 nM (active), the GI50 [2] was 1310 nM (inactive) and the GI50 [3] was 861 nM (active). The GI50 [4] was < 21.1 nM (active), the GI50 [5] was 133 nM (active) and the GI50 [6] was 69 nM (active). The GI50 [7] was 147 nM (active), the GI50 [8] was 95.5 nM (active) and the GI50 [9] was 234 nM (active). For the same compound, the GI50 [10] was 184 nM (active), the GI50 [11] was 240 nM (active) and the GI50 [12] was 162 nM (active). The GI50 [13] was 82.6 nM (active), the GI50 [15] was 17 nM (active) and the GI50 [16] was 88.5 nM (active). For the same compound, the GI50 [17] was 87.3 nM (active), the GI50 [18] was 73.6 nM (active) and the GI50 [19] was 159 nM (active). For the same compound, the GI50 [20] was 120 nM (active), the GI50 [21] was 76.2 nM (active) and the GI50 [22] was 272 nM (active). The GI50 [23] was 504 nM (active), the GI50 [24] was 190 nM (active) and the GI50 [25] was 15.6 nM (active). The GI50 [26] was 134 nM (active), the GI50 [27] was 5210 nM (inactive) and the GI50 [28] was 72.3 nM (active). For the same compound, the GI50 [29] was 18.3 nM (active), the GI50 [30] was 158 nM (active) and the GI50 [31] was 154 nM (active). The GI50 [32] was 27.8 nM (active), the GI50 [33] was 149 nM (active) and the GI50 [34] was 291 nM (active). The GI50 [35] was 73.3 nM (active), the GI50 [36] was 42000 nM (inactive) and the GI50 [37] was 323 nM (active). For the same compound, the GI50 [57] was 114 nM (active), the GI50 [38] was 226 nM (active) and the GI50 [39] was 22.8 nM (active). The GI50 [40] was 162 nM (active), the GI50 [41] was 23.1 nM (active) and the GI50 [42] was 226 nM (active). The GI50 [43] was 5690 nM, the GI50 [44] was 76.2 nM (active) and the GI50 [45] was 224 nM (active). For the same compound, the GI50 [46] was 66.5 nM (active), the GI50 [47] was 50.2 nM (active) and the GI50 [58] was < 10 nM (active). The GI50 [59] was 292 nM (active), the GI50 [48] was 182 nM (active) and the GI50 [49] was 50.2 nM (active). The GI50 [50] was 384 nM (active), the GI50 [51] was 500 nM (active) and the GI50 [52] was 96.2 nM (active). The GI50 [53] was 356 nM (active), the GI50 [54] was 103 nM (active) and the GI50 [55] was 69.7 nM (active). The GI50 [56] was 135 nM (active).
